Target: DNA dC->dU-editing enzyme APOBEC-3A (Homo sapiens, UniProt P31941)
Assay: APOBEC3A DNA deaminase inhibitors, dose response, biochemical (AID 504722)
Details: 25 °C

Chain of DNA dC->dU-editing enzyme APOBEC-3A (P31941 whole entry): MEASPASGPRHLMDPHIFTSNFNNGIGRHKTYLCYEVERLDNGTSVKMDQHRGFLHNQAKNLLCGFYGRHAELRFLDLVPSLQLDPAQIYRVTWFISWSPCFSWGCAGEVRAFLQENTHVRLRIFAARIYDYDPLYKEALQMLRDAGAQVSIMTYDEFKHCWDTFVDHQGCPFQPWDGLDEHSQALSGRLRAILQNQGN

`COc1ccc(-n2c(O)cc(Sc3nnc(-c4ccccc4)[nH]3)c2O)cc1` [1-(4-methoxyphenyl)-3-[(5-phenyl-1H-1,2,4-triazol-3-yl)thio]pyrrolidine-2,5-dione] was tested, and the IC50 was > 100 µM.
With `OCC12C=CC(O1)c1c2c(O)n(-c2ccccc2-c2ccccc2)c1O` (stereo not drawn) [7-(hydroxymethyl)-2-(2-phenylphenyl)-4,7a-dihydro-3aH-octahydro-1H-4,7-epoxyisoindole-1,3-dione] the IC50 was > 100 µM.
With `CCOc1ccc(-n2c(O)cc(Sc3nnc(-c4ccccc4)[nH]3)c2O)cc1` [MLS000765380] the IC50 was > 100 µM.

— BindingDB's records for doi:10.7270/Q2CZ35ND (Burnham Center For Chemical Genomics, 2011)
